Source: PMC5853558, “De novo identification of lipid II binding lipopeptides with antibacterial activity against vancomycin-resistant bacteria” (Chemical Science, 2017)
≈ marks a conversion by molar mass, not a printed value. *1 amine or outer side, *2 acyl side, *3 side chain or, on linkers, in order; H or OH if unused. Where a SMILES comes first, the peptide text is derived from it. Bridges are numbered along the chain shown (N, C = ends). [ ]: non-standard residue; d: D form. The star is where a group is joined. TBMB = c1c(C[*:1])cc(C[*:3])cc1C[*:2]; NHDecyl = CCCCCCCCCCN*

Legend:
[1] = system: M. luteus (NCTC2665); test: microbe, parasite or virus in culture; type: cell-based, Micrococcus luteus
In short: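 Broth microdilution in TSB; peptides serially diluted, top final concentration 512 µg/ml (lipopeptides 64 µg/ml) with 2% DMSO. Inoculum from cultures grown to OD600 0.5, diluted to 1 x 10^6 CFU/ml before mixing 1:1 with peptide. Incubated at each organism's preferred growth temperature, 250 rpm.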

[2] = system: Sheep blood; test: Hemolysis assay; type: cell-based; conditions: for Hemolysis: Supplemental table S9, 1 hour incubation at 37 °C, lipopeptides at 32 µg/mL
Protocol: Sheep blood in Alsever’s solution (2 mL) was diluted with PBS (13 mL) and centrifuged (2,000 RPM, 5 min). The supernatant was discarded and the cells were washed with another 13 mL of PBS and centrifuged. Washing was continued until the supernatant was clear. After the final wash the supernatant was discarded and the packed cells were kept on ice. Serial dilutions of each peptide were made in 50 µl PBS with the highest tested concentration 64 µg/mL in PBS, 2%
DMSO. The packed cells (150 µL) were suspended in PBS (10 mL) and 50 µL of this suspension was added to each well. A well plate column containing 0.1% triton x-100 in DI water was used as the 100% lysis control and a second column with PBS (with 2% DMSO) served as the 0% lysis control. After incubation at 37°C for 1h the plates were centrifuged (2,000 RPM, 5 min) and 25 µL of the supernatant was added to 100 µL DI water in a flat-bottom 96-wells plate (polystyrene). […]

[3] = system: S. epidermidis (1587); test: microbe, parasite or virus in culture; type: cell-based
Protocol: (§1) Section 4 Biological and biochemical experiments
(§2) 4.1 Minimum inhibitory concentration assay
(§3) MIC values were determined by using the broth microdilution method. Peptides were dissolved first in DMSO and diluted with broth so that the final peptide concentration was 1024 µg/ml and the DMSO concentration was 4%. Peptide serial dilutions were made in TSB in a polypropylene 96-wells plate using 50 µl volumes. An overnight culture of the organism of interest was diluted to and OD600 of 0.01 and grown until they reach 0.5. The culture was then diluted to 1 x 10^6 CFU/ml and 50 µl of this suspension was added to each well. The highest concentrations were then 512 µg/ml peptide and 2% DMSO. The plates were incubated at the preferred growth temperature of the organism that was used and 250 rpm. […] When […]
(§4) determining the MICs of the lipidated peptides, the lipopeptides were first dissolved in DMSO and diluted with TSB so that the peptide concentration was 128 µg/ml and the DMSO concentration was 4%. After inoculation the highest peptide concentration evaluated was 64 µg/ml and the DMSO concentration was 2%. A DMSO control was tested for each strain to ensure the DMSO did not affect the growth of the particular strain. […]

[4] = system: S. pyogenes (5448); test: microbe, parasite or virus in culture; type: cell-based
Protocol: as §1, §2, §3, §4

[5] = system: B. subtilis (168); test: microbe, parasite or virus in culture; type: cell-based
Protocol: as §1, §2, §3, §4

[6] = system: E. faecium (VRE0321); test: microbe, parasite or virus in culture; type: cell-based, Enterococcus faecium
Protocol: as §1, §2, §3, §4

[7] = system: E. faecium (VRE155); test: microbe, parasite or virus in culture; type: cell-based, Enterococcus faecium
Protocol: as §1, §2, §3, §4

[8] = system: E. faecium (VRE2297); test: microbe, parasite or virus in culture; type: cell-based, Enterococcus faecium
Protocol: as §1, §2, §3, §4

[9] = system: E. faecium (E980); test: microbe, parasite or virus in culture; type: cell-based, Enterococcus faecium
Protocol: as §1, §2, §3, §4

[10] = system: E. faecium (VRE7391); test: microbe, parasite or virus in culture; type: cell-based, Enterococcus faecium
Protocol: as §1, §2, §3, §4

[11] = system: C55-PP; test: Antagonization assay with C55-PP; type: cell-based, M. luteus; set-up: key to Result with antagonist C55-PP: +: antagonization of antibiotic activity; -: no antagonization of antibiotic activity; conditions: Supplemental table S10; peptide at 4x MIC, M. luteus, 16 h at 30°C, growth observed visually
Protocol: (§5) To assess the role of lipid II in the mode of action of the lipopeptides a lipid II antagonization assay was employed.[18],[33] This assay was performed by premixing P8-D-C10 or the optimized P8-D-(S6R, R15A)-C10 with an excess of lipid II prior to addition of a live culture of M. luteus. […] To probe the stereochemical aspects of lipid II recognition by the optimized P8-D-(S6R, R15A)-C10 lipopeptide we also prepared and tested the corresponding enantiomeric L-peptide species P8-L-(S6R, R15A)-C10. […] Given that lipid II is a chiral biomolecule we had expected the enantiomeric lipopeptides to have different activities based on the assumption that they would interact differently with lipid II. To further investigate this phenomenon we employed the same lipid II antagonization assay described above. […] To explain this observation we hypothesize that the two enantiomeric peptides interact primarily with the pyrophosphate moiety of lipid II and are therefore less influenced by the chiral elements present elsewhere in the lipid II molecule. The pyrophosphate group is known to be a binding site for many natural occurring lipid II binding peptides.[15],[16] […] To test the hypothesis that both the P8-D-(S6R, R15A)-C10 and P8-L-(S6R, R15A)-C10 lipopeptides interact with the pyrophosphate moiety we performed an additional antagonizaiton experiment using C55-PP.
as §1, §2, §3, §4
(§6) 4.4 Antagonization assays
(§7) Stock solutions of each peptide antibiotic were prepared so that their final concentration in the assay would be 4x MIC. Peptides were transferred to a 96 wells plate and lipid II or C15-P (farnesyl-phosphate) was added at 4 molar equivalents in a final volume of 50 µl. Each well received 50 µl of bacterial suspension (M. luteus) at 1 x 10^6 CFU/ml and the plates were incubated for 16 h at 250 rpm and 30°C. Growth was observed visually (see supplemental table S10 for results).

[12] = system: lipid II; test: Lipid II antagonization assay; type: cell-based, M. luteus; set-up: key to Result with antagonist Lipid II: +: antagonization of antibiotic activity; -: no antagonization of antibiotic activity
Protocol: as §5, §1, §2, §3, §4, §6, §7

[13] = system: C15-P (farnesyl-phosphate); test: Antagonization assay with C15-P (negative control); type: cell-based; set-up: key: +: antagonization of antibiotic activity; -: no antagonization of antibiotic activity; conditions: Supplemental table S10, peptide at 4x MIC, 4 molar equivalents, M. luteus, 16 h at 30°C, growth observed visually
Protocol: as §1, §2, §3, §4, §6, §7
Supplemental table S10. Lipid II antagonization assay results
Result with indicated antagonista
Antibiotic compound Lipid II C55-PP C15-Pb […]
a + = antagonization of antibiotic activity; - = no antagonization of antibiotic activity; b C -P was used as a negative […]
control (C15-P is a watersoluble analogue of the lipid II precursor undecaprenol phosphate).
4.6 Scanning Electron Microscopy
E. faecium E155 was inoculated at an OD600nm of 0.05 into 300 µL of cation adjusted TSB containing P8-D-(S6R, R15A)-C10 or nisin at (both a 2x MIC) along with 1% glucose and 1%
DMSO. An untreated culture was used as control. Following overnight incubation (ca. 16 hr) bacterial cells were fixed for 15 minutes with 1% (v/v) glutaraldehyde in phosphate buffered saline (PBS) at room temperature on poly-L-lysine covered glass slides (12 mm diameter). […]

[14] = Supplemental table S9, MIC values of Table 2 expressed in µM
[15] = Table 2, broth microdilution in TSB, 16 h, read visually, highest tested 64 µg/ml, 2% DMSO
[16] = Table 2, broth microdilution in TSB, 16 h, read visually, highest tested 64 µg/ml
[17] = Supplemental table S9, vancomycin-resistant isolate, MIC values of Table 2 expressed in µM
[18] = Table 2, vancomycin-resistant isolate from hospitalized patients, broth microdilution in TSB, 16 h, highest tested 64 µg/ml
[19] = Supplemental table S7, P8 with varying lipids, broth microdilution

Row | Structure (SMILES) | MIC M. luteus (NCTC2665) [1, 14] [µM] | MIC M. luteus (NCTC2665) [1, 15] [μg mL^–1] | Hemolysis [2] [%] | MIC S. epidermidis (1587) [3, 14] | MIC S. epidermidis (1587) [3, 16] [μg mL^–1] | MIC S. pyogenes (5448) [4, 14] [µM] | MIC S. pyogenes (5448) [4, 16] [μg mL^–1] | MIC B. subtilis (168) [5, 14] [µM] | MIC B. subtilis (168) [5, 16] | MIC E. faecium (VRE0321) [6, 17] [µM] | MIC E. faecium (VRE0321) [6, 18] | MIC E. faecium (VRE155) [7, 17] [µM] | MIC E. faecium (VRE155) [7, 18] | MIC E. faecium (VRE2297) [8, 17] [µM] | MIC E. faecium (VRE2297) [8, 18] | MIC E. faecium (E980) [9, 14] [µM] | MIC E. faecium (E980) [9, 16] [μg mL^–1] | MIC E. faecium (VRE7391) [10, 17] [µM] | MIC E. faecium (VRE7391) [10, 18] | also measured
1 | CCCCCCCCCCNC(=O)CNC(=O)[C@H]1CSCc2cc3cc(c2)CSC[C@@H](NC(=O)[C@@H](CC(C)C)NC(=O)[C@@H](CC(C)C)NC(=O)[C@@H](CO)NC(=O)[C@@H](CCC(N)=O)NC(=O)[C@@H](CC(C)C)NC(=O)[C@@H](CC(C)C)NC(=O)[C@H](NC(=O)[C@@H](C)N)CSC3)C(=O)N[C@H](CCCNC(=N)N)C(=O)N[C@H](Cc2ccc(O)cc2)C(=O)N[C@H](CO)C(=O)N[C@H]([C@H](C)O)C(=O)N[C@H](Cc2c[nH]cn2)C(=O)N[C@H](C)C(=O)N1 [P8-D-(P10R, R15A)-C10] (H-[dA][dC][dL][dL][dQ][dS][dL][dL][dC][dR][dY][dS][dT][dH][dA][dC]G-NHDecyl; linker 2-9-16 via TBMB; N-terminus assumed) | 3.8 (≈ 7.95 µg/mL) | 4 | 0 | > 61. 2 µM | >64 | 15.3 (≈ 32 µg/mL) | 16 | 7.7 (≈ 16.1 µg/mL) | 8 μg mL^–1 | 15.3 (≈ 32 µg/mL) | 16 μg mL^–1 | 7.7 (≈ 16.1 µg/mL) | 8 μg mL^–1 | 30.6 (≈ 64 µg/mL) | 32 μg mL^–1 | 30.6 (≈ 64 µg/mL) | 32 | 15.3 (≈ 32 µg/mL) | 16 μg mL^–1 | 
2 | CCCCCCCCCCNC(=O)CNC(=O)[C@H]1CSCc2cc3cc(c2)CSC[C@@H](NC(=O)[C@@H](CC(C)C)NC(=O)[C@@H](CC(C)C)NC(=O)[C@@H](CO)NC(=O)[C@@H](CCC(N)=O)NC(=O)[C@@H](CC(C)C)NC(=O)[C@@H](CC(C)C)NC(=O)[C@H](NC(=O)[C@@H](C)N)CSC3)C(=O)N2CCC[C@@H]2C(=O)N[C@H](Cc2ccc(O)cc2)C(=O)N[C@H](CO)C(=O)N[C@H]([C@H](C)O)C(=O)N[C@H](CCCNC(=N)N)C(=O)N[C@H](C)C(=O)N1 [P8-D-(H14R, R15A)-C10] (H-[dA][dC][dL][dL][dQ][dS][dL][dL][dC][dP][dY][dS][dT][dR][dA][dC]G-NHDecyl; linker 2-9-16 via TBMB; N-terminus assumed) | 3.9 (≈ 8.01 µg/mL) | 4 | 2 | > 62. 4 µM | >64 | 15.6 (≈ 32 µg/mL) | 16 | 15.6 (≈ 32 µg/mL) | 16 μg mL^–1 |  | 8–16 μg mL^–1 |  | 8–16 μg mL^–1 | 15.6 (≈ 32 µg/mL) | 16 μg mL^–1 | 31.2 (≈ 64 µg/mL) | 32 |  | 8–16 μg mL^–1 | 
3 | CCCCCCCCCCNC(=O)CNC(=O)[C@H]1CSCc2cc3cc(c2)CSC[C@@H](NC(=O)[C@@H](CC(C)C)NC(=O)[C@@H](CC(C)C)NC(=O)[C@@H](CO)NC(=O)[C@@H](CCC(N)=O)NC(=O)[C@@H](CC(C)C)NC(=O)[C@@H](CC(C)C)NC(=O)[C@H](NC(=O)[C@@H](C)N)CSC3)C(=O)N2CCC[C@@H]2C(=O)N[C@H](Cc2ccc(O)cc2)C(=O)N[C@H](CO)C(=O)N[C@H]([C@H](C)O)C(=O)N[C@H](Cc2c[nH]cn2)C(=O)N[C@H](CCCNC(=N)N)C(=O)N1 [Peptide P8-D-C10] (H-[dA][dC][dL][dL][dQ][dS][dL][dL][dC][dP][dY][dS][dT][dH][dR][dC]G-NHDecyl; linker 2-9-16 via TBMB) | 3.8 (≈ 8.05 µg/mL) |  | 6 |  | 64 | 7.6 (≈ 16.1 µg/mL) | 8 |  | 8–16 μg mL^–1 | 3.8 (≈ 8.05 µg/mL) | 4 μg mL^–1 | 3.8 (≈ 8.05 µg/mL) |  |  | 8–16 μg mL^–1 | 30.3 (≈ 64.2 µg/mL) | 32 | 7.6 (≈ 16.1 µg/mL) | 8 μg mL^–1 | MIC M. luteus [1, 19]: 4 µg/mL (≈ 1.89 µM); Hemolysis 32 µg/ml (after 1 h) ([2]; Supplemental table S7, sheep blood cells in PBS, 32 µg/ml, 1 h at 37°C, absorption at 414 nm): 6%; MIC B. subtilis ([5]; Supplemental table S6, lipidated phage display hits, n.a. = not active, highest tested conc 64 µg/ml): 8 to 16 µg/mL; Result with antagonist C55-PP [11]: +; MIC VRE E155 [7, 19]: 4 µg/mL (≈ 1.89 µM); Result with antagonist Lipid II ([12]; Supplemental table S10, peptide at 4x MIC, antagonist at 4 molar equivalents, M. luteus 1 x 10^6 CFU/ml, 16 h at 30°C, growth observed visually): +; Effect of pre-incubation with lipid II on antibacterial activity ([12]; premixed with an excess of lipid II before addition of a live culture of M. luteus): antagonization of antibacterial activity; Result with antagonist C15-P [13]: -
